Reference: patent US20260191965A1 (priority 2022, published 2026)

What was measured:
[1] = test system: Mycobacterium tuberculosis H37Rv (ATCC 27294); assay type: cell-based
[2] = test system: clinical isolates of Mycobacterium tuberculosis; experiment: microbe, parasite or virus in culture; assay type: cell-based

SMILES	effect on growth of rifamycin-sensitive and rifamycin-resistant tuberculosis strains under anaerobic conditions [1]	MIC range against tuberculosis strains resistant to rifampicin and metronidazole [2] [µg/mL]
Cc1ncc([N+](=O)[O-])n1CCO [Metronidazole, metronidazole]	a certain inhibitory effect	–
CO[C@H]1/C=C/O[C@@]2(C)Oc3c(C)c(O)c4c(c3C2=O)C2=NC3(CCN(CCn5c([N+](=O)[O-])cnc5C)CC3)NC2=C(NC(=O)/C(C)=C\C=C\[C@H](C)[C@H](O)[C@@H](C)[C@@H](O)[C@@H](C)[C@H](OC(C)=O)[C@@H]1C)C4=O	–	0.5 to 2
